A short description of series [1]: Toxicity in human erythrocytes assessed as induction of hemolysis incubated for 18 hrs. In kind it is cell-based, Erythrocyte.
Series [2] in a line: Toxicity in human erythrocytes assessed as induction of hemolysis at 15 uM incubated for 18 hrs. Type of series: cell-based, Erythrocyte. The following applies: read-out: Activity.
In series [3] the test system is Candida albicans. Briefly: Antimicrobial activity against Candida albicans ATCC 36082 incubated for 2 days at 35 degC by CLSI protocol based method. In kind it is functional. As to conditions: ATCC 36082, 48 h; call rule not given here.
Series [4] in a line: Induction of potassium influx in sterol-free and cholesterol and ergosterol-containing POPC liposomes at 32 uM by BCECF dye based fluorimetric assay. Type of series: physicochemical.

Converted amounts (≈) assume the structure as drawn.

Consider `C[C@@H]1[C@H](O)[C@@H](C)/C=C/C=C/C=C/C=C/C=C/C=C/C=C/[C@H](O[C@@H]2O[C@H](C)[C@@H](O)[C@H](N)[C@@H]2O)C[C@@H]2O[C@](O)(C[C@@H](O)C[C@@H](O)[C@H](O)C(=O)C[C@@H](O)C[C@@H](O)CC(=O)O[C@H]1C)C[C@H](O)[C@H]2C(=O)O`, for which the HC50 at 18 h in series [1] is more than 15 µM. Further, the hemolysis at 18 h, 15 µM in series [2] stood at 10%. This molecule came in with an MIC in series [3] of 2 µM (≈ 1.88 µg/mL). Further, the Activity result in series [4] is on record as “Not Active”.
Turning to `C[C@@H]1[C@H](O)[C@@H](C)/C=C/C=C/C=C/C=C/C=C/C=C/C=C/[C@H](O[C@@H]2O[C@H](C)[C@@H](O)[C@H](N)[C@@H]2O)C[C@@H]2O[C@](O)(C[C@@H](O)C[C@@H](O)[C@H](O)[C@@H](O)C[C@@H](O)C[C@@H](O)CC(=O)O[C@H]1C)C[C@H](O)[C@H]2C(=O)O`, in series [1], the HC50 at 18 h came to 6.9 µM. Moreover, in series [3], the MIC came to 1 µM (≈ 0.94 µg/mL). For the same molecule, in series [4], the Activity entry is recorded as “Not Active”.
Turning to `C[C@@H]1[C@H](O)[C@@H](C)/C=C/C=C/C=C/C=C/C=C/C=C/C=C/[C@H](O[C@@H]2O[C@H](C)[C@@H](O)[C@H](N)[C@@H]2O)C[C@@H]2O[C@](O)(C[C@@H](O)C[C@@H](O)[C@H](O)CC[C@@H](O)C[C@@H](O)CC(=O)O[C@H]1C)C[C@H](O)[C@H]2C(=O)O` [AMPHOTERICIN B], the HC50 at 18 h in series [1] worked out at 3.2 µM. The molecule also came in with an MIC in series [3] of 0.25 µM (≈ 0.231 µg/mL). Also, the outcome in series [4] was Active.
The like results for `C[C@@H]1[C@H](O)[C@@H](C)/C=C/C=C/C=C/C=C/C=C/C=C/C=C/[C@H](O[C@@H]2O[C@H](C)[C@@H](O)[C@H](N)[C@@H]2O)C[C@@H]2O[C@](O)(C[C@@H](O)C[C@@H](O)[C@H](O)[C@H](O)C[C@@H](O)C[C@@H](O)CC(=O)O[C@H]1C)C[C@H](O)[C@H]2C(=O)O` were, in that order, 5.4 µM, 4 µM (≈ 3.76 µg/mL) and “Not Active”.

(Values after ChEMBL document CHEMBL3603791, “Role of polyol moiety of amphotericin B in ion channel formation and sterol selectivity in bilayer membrane” (Bioorg Med Chem, 2015).)
